Measurements reported in publication PMC9181982, “Biphenyl Ether Analogs Containing Pomalidomide as Small-Molecule Inhibitors of the Programmed Cell Death-1/Programmed Cell Death-Ligand 1 Interaction” (Molecules, 2022).
“Also recorded” adds a separate entry of the source.

Assays:
PD-1/PD-L1 complex = biological target: T1, PD-1/PD-L1 complex (Homo sapiens, UniProt Q9NZQ7); assay: HTRF (homogeneous time-resolved fluorescence) PD-1/PD-L1 binding assay (Cis-Bio); conditions: for inhibition at 0.5 µM: 0.5 µM ligand, read-out: HTRF: Percentage of the Dissociated PD-1/PD-L1 Complex, 0.5 µM Ligand Conc.; for inhibition at 0.5 µM / inhibition at 5 µM: 5 nM hPD-L1, 50 nM hPD-1; for inhibition at 5 µM: 5 µM ligand, read-out: HTRF: Percentage of the Dissociated PD-1/PD-L1 Complex, 5 µM Ligand Conc.; for IC50: six ligand concentrations, two dilution series
T1 construct: purchased Cis-Bio
T1 sequence (Q9NZQ7 19-238 limits assumed, one chain of several): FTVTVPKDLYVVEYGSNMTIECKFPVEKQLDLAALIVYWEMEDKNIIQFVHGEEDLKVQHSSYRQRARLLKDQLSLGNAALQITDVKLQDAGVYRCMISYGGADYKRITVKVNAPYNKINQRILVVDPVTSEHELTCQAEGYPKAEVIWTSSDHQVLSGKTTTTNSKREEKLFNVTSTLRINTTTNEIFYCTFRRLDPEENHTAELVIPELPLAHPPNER
Procedure: To validate the activity toward PD-L1 of our compounds, we carried out an HTRF (homogeneous time-resolved fluorescence) experiment at two concentrations of the ligand (5 µM and 0.5 µM) (Table 1).
HTRF was carried out using a certified Cis-Bio assay according to the manufacturer’s guidelines. The experiments were carried out at 5 nM of h-L1 and 50 nM of hPD-1 in the final formulation at the 20 µL final volume in the well. To determine the half maximal inhibitory concentrations (IC50) of the tested compounds, the measurements were carried out on two individual dilution series unless stated otherwise. After mixing all the components according to the Cis-Bio protocol, the plate was left for 2 h incubation at room temperature followed by the TR-FRET measurement on a Tecan Spark 20M. […] The collected data was background-subtracted from the negative control, normalized on the positive control, averaged, and fitted with the normalized Hill’s equation to determine the IC50 value using Mathematica 12 (Princeton, NJ, USA).

PD-L1 protein = biological target: T2, PD-L1 protein (Homo sapiens, UniProt Q9NZQ7); assay: 1H NMR binding analysis, PD-L1 protein titrated with ligand; conditions: for Protein precipitation during NMR titration: 1H NMR titration, compound 6 at protein–ligand ratio 1:10; for Binding to PD-L1 by 1H NMR titration: PBS pH 7.4, 300 K, protein–ligand ratios up to 1:10
T2 construct: PD-L1 gene (amino acids 18–239); made in house; host or cells: E. coli BL21
T2 sequence (Q9NZQ7 18-239): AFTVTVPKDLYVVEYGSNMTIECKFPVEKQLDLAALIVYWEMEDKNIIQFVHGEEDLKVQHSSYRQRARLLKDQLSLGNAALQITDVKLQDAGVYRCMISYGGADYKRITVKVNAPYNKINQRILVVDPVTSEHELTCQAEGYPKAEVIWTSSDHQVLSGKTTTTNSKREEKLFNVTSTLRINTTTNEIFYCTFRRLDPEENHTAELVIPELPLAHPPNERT
Procedure: Apart from the HTRF assay, we performed the NMR [33, 34] binding analysis by recording the ^1H spectrum of the PD-L1 protein titrated with compound 4 (Figure 1).
The E. coli strain BL21 was transformed with a pET-21b plasmid carrying the PD-L1 gene (amino acids 18–239). The bacteria were cultured in LB at 37 °C until OD600nm of 0, 6 when the recombinant protein production was induced with 1 mM IPTG. The protein production continued overnight. The inclusion bodies were collected by centrifugation, washed twice with 50 mM Tris HCl, pH 8.0, containing 200 mM NaCl, 10 mM EDTA, 10 mM 2-mercaptoethanol, and 0.5% Triton X-100, followed by a single wash with the same buffer but with no Triton X-100. The washed inclusion bodies were resuspended overnight in 50 mM Tris HCl, pH 8.0, 6 M GuHCl, 200 mM NaCl, and 10 mM 2-mercaptoethanol and clarified with centrifugation. Refolding of PD-L1 was performed by dropwise dilution into 0.1 M Tris HCl, pH 8.0, containing 1 M L-arginine hydrochloride, 0.25 mM oxidized glutathione, and 0.25 mM reduced glutathione. The refolded protein was dialyzed three times against 10 mM Tris HCl, pH 8.0, containing 20 mM NaCl and purified by size exclusion chromatography using Superdex 75 and a dialysis buffer. The quality of the refolded protein was evaluated by SDS-PAGE and NMR.
NMR spectra were recorded in PBS, pH 7.4, containing 10% (v/v) of D2O added to the samples to provide the lock signal. Water suppression was carried out using the WATERGATE sequence. All the spectra were recorded at 300 K using a Bruker Avance 600 MHz spectrometer with the Cryo-Platform. The NMR spectrum was recorded at three different ligand/protein ratios from 0 to 10. The samples were prepared by adding small amounts of a 50 mM ligand stock solution in DMSO to the protein solution (0.20 mL) of the PD-L1 fragment at a concentration of 0.14 mM. The acquisition parameters for each spectrum were as follows: size of FID32768, number of scans: 32. The spectra were visualized using TopSpin 4.0.2. (Bruker, Billerica, MA, USA)

[1] = test system: PD-1/PD-L1 blockade, Jurkat effector cells / CHO/TCRAct/PD-L1 cells; assay: Immune checkpoint blockade (ICB) assay (Promega): Jurkat ECs co-cultured with CHO/TCRAct/PD-L1 cells, NFAT luciferase readout; type: cell-based, human; conditions: for Activation of Jurkat ECs compared with BMS-1166: 5 µM, p < 0.001 vs BMS-1166; for Activation of Jurkat ECs in the ICB assay: 6 h co-culture, fold induction vs control; for Promega Assay (active / not active): cell-based PD-1/PD-L1 blockade bioassay
Procedure: In order to explore the bioactivity of the synthesized compounds, a well-recognized immune checkpoint blockade (ICB) assay was performed. In the assay, artificial T cells, the Jurkat effector cells (Jurkat ECs), i.e., the Jurkat T cells overexpressing PD-1 and luciferase-coding gene under the control of the TCR-inducible NFAT response element, are contacted with artificial antigen-presenting CHO/TCRAct/PD-L1 cells, as illustrated in [31]. The latter is the CHO cells equipped with the TCR activator molecule, which delivers activation of Jurkat ECs, and also the PD-L1 protein, which provides a negative signal towards the activation of Jurkat ECs. Upon the blockade of the PD-1/PD-L1 interaction, activation of Jurkat ECs is increased, as we have shown before for several classes of therapeutic antibodies and small molecules.
The human PD-L1-expressing CHO-K1 cells overexpressing TCR activator (CHO/TCRAct/PD-L1) cells and Jurkat ECs T cells overexpressing PD-1 and carrying a luciferase reporter gene under the control of the Nuclear Factor of Activated T cells Response Element (NFAT-RE) were obtained from Promega and cultured in an RPMI-1640 medium (Biowest, Nuaillé, France) supplemented with 10% fetal bovine serum (FBS, Biowest, Nuaillé, France) and […] L-glutamine (Biowest, Nuaillé, France). G418 (250 µg/mL, InvivoGen, San Diego, CA, USA) and Hygromycin B Gold (50 µg/mL, InvivoGen, San Diego, CA, USA) were also added to the culture medium as selection antibiotics. CAKI 2, LNCap, PC-3, and MDA-MB-231 cells were purchased from the European Collection of Authenticated Cell Cultures (ECACC) and cultured according to the provided protocol.
For the analysis of biological activity of the analyzed compounds, an immune checkpoint blockade (ICB) assay was performed. For this, the culture of Jurkat effector cells (Jurkat-ECs) and […] was carried out. The assay was performed according to the protocol described in our previous works. All the experiments were performed three times as independent experiments.
Figure 2 Bioactivity of the indicated compounds. (A,B) The activity was monitored with a cell-based immune checkpoint blockade (ICB) assay. Jurkat ECs were contacted with pre-seeded CHO/TCRAct/PD-L1 cells in the presence of the indicated concentrations of the compounds (A) or durvalumab (B) as a positive control. The cells were co-cultured for 6 h and the luminescence signal was measured following the addition of the Bio-Glo substrate. The graphs show fold induction calculated versus either DMSO-treated (for small molecules) or untreated (for durvalumab) control (ctrl) cells. The results are mean ± SD from three independent experiments. […] (C) Analysis of the expression of PD-L1 in four human cancer cell lines compared to PD-L1-overexpressing CHO/TCRAct/PD-L1 cells. (D) Analysis of the expression of PD-L1 in MDA-MB-231 cells treated with either 4 or 5 compounds for 6 or 24 h.

Row | SMILES | inhibition at 0.5 µM (PD-1/PD-L1 complex) [%] | inhibition at 5 µM (PD-1/PD-L1 complex) [%] | IC50 (PD-1/PD-L1 complex) [nM] | Protein precipitation during NMR titration (PD-L1 protein) | Binding to PD-L1 by 1H NMR titration (PD-L1 protein) | Activation of Jurkat ECs compared with BMS-1166 [1] | Activation of Jurkat ECs in the ICB assay [1] | Promega Assay (active / not active) [1]
1 | COc1nc(OCc2cccc(-c3ccccc3)c2C)ccc1CNCCCNc1cccc2c1C(=O)N(C1CCC(=O)NC1=O)C2=O (stereo not shown) [compound 5, 2-(2,6-dioxopiperidin-3-yl)-4-((3-(((2-methoxy-6-((2-methyl-[1,1′-biphenyl]-3-yl)methoxy)pyridin-3-yl)methyl)amino)propyl)amino)isoindoline-1,3-dione] | 66.3 | 100 | 640 ± 20 | not observed | bind to the PD-L1 protein | significantly higher levels of the activation of Jurkat ECs | able to increase the activation of Jurkat ECs; also recorded: significantly restore the repressed immunity | Active
2 | COc1nc(OCc2cccc(-c3ccccc3)c2C)ccc1CNCC1CCN(CC(=O)Nc2cccc3c2C(=O)N(C2CCC(=O)NC2=O)C3=O)CC1 (stereo not shown) [compound 4, N-(2-(2,6-dioxopiperidin-3-yl)-1,3-dioxoisoindolin-4-yl)-2-(4-((((2-methoxy-6-((2-methyl-[1,1′-biphenyl]-3-yl)methoxy)pyridin-3-yl)methyl)amino)methyl)piperidin-1-yl)acetamide] | 18.2 | 88.8 | 1320 ± 40 | not observed | bind to the PD-L1 protein | significantly higher levels of the activation of Jurkat ECs | able to increase the activation of Jurkat ECs; also recorded: significantly restore the repressed immunity | Active
